Earlier results, collected in patent US20250303004A1, “RADIOPHARMACEUTICAL COMPOSITIONS FOR LOW TOXICITY ACTINIUM IN TARGETED RADIONUCLIDE THERAPY” (Curium US LLC, priority 2021, published 2025).

Tests used:
[1] = test system: kidneys and lesion of a mCRPC patient; settings: 8.1 MBq, cited from earlier work
[2] = test system: patient with advanced mCRPC; settings: cited from earlier work
patients = settings: cited from earlier work
[3] = subgroup of 11 patients with prior ^177Lu-PSMA treatment
[4] = subgroup with prior ^177Lu-PSMA radioligand therapy

In the case of O=C(O)CC[C@H](NC(=O)N[C@@H](CCCCNC(=O)CCCCCCC(=O)NCCCC[C@@H](NC(=O)[C@@H](Cc1ccccc1)NC(=O)[C@@H](Cc1ccc(O)c(I)c1)NC(=O)CC[C@H](C(=O)O)N1CCN(CC(=O)O)CCN(CC(=O)O)CCN(CC(=O)O)CC1)C(=O)O)C(=O)O)C(=O)O.[225Ac+3] [^225Ac-PSMA-I&T, (3S,7S,26R,29R,32R,37R)-29-benzyl-32-(4-hydroxy-3-iodobenzyl)-5,13,20,28,31,34-hexaoxo-37-(4,7,10-tris(carboxymethyl)-1,4,7,10-tetraazacyclododecan-1-yl)-4,6,12,21,27,30,33-heptaazaheptatriacontane-1,3,7,26,37-pentacarboxylic acid; Actinium-225 (III)], the “absorbed dose, left kidney” value ([1]; SPECT/CT at 24 h p. i.) is given as 0.18 Sv(RBE=5)/MBq, the “absorbed dose, right kidney” value ([1]; SPECT/CT at 24 h p. i.) is given as 0.17 Sv(RBE=5)/MBq and the “absorbed dose, small lesion in the right hip” value [1] is given as 0.26 Sv(RBE=5)/MBq. For the same compound, the “main TAT-related side effect” value ([2]; already preexisting after 10 cycles of RLT) was “grade 2 xerostomia”, the response ([2]; two cycles after failure of ^177Lu-PSMA-617 (10 cycles), FIG. 6) was “encouraging response” and the hematological side effects ([2]; two cycles) was “No TAT-related grade 3/4 hematological side effects were noted”. The “acute toxicity during hospitalization” value (patients; 14 patients, 34 cycles, median 7.8 MBq) was “No acute toxicity was observed”, the hematologic toxicity (patients; 14 patients, FIG. 13) was “mild” and the “patients with grade 1 nephrotoxicity” value (patients; 14 patients, FIG. 13) was “one”. The “biochemical responses compared with ^225Ac-PSMA-617 TAT” value (patients; first clinical data) was “highly comparable biochemical responses”, the “patients with grade 3 anemia after TAT” value (patients; of 14 patients, 2 with grade 2 anemia at baseline) was 3 patients and the “patients reporting no xerostomia at all” value (patients; of 14 patients) was “One”. For the same compound, the “patients with PSA decline of any amount” value (patients; of 14 patients) was 11 patients, the “patients with best PSA response (PSA decline ≥50%)” value (patients; of 14 patients) was 7 patients and the “patients with grade 3 leukopenia” value (patients; of 14 patients) was 1 patients. The “patients with newly diagnosed grade 1 or 2 xerostomia after TAT” value (patients; of 14 patients) was 5 patients, the “patients with no PSA decline at any time” value (patients; of 14 patients) was “Three” and the “patients with preexisting xerostomia after ^177Lu-PSMA showing no worsening after TAT” value (patients; of 14 patients) was “Eight”. The “patients with PSA decline of at least 50%” value (patients; [3]) was 5 patients, the “patients with any PSA decline” value (patients; [3]) was 8 patients and the “PSA decline ≥50%” value (patients; [4]) was 45%. The “any PSA decline” value (patients; [4]) was 73%.
